These results are taken from PubChem BioAssay AID504765 (Sanford-Burnham Center for Chemical Genomics, 2011).

In this assay the target is glucose-6-phosphate dehydrogenase-6-phosphogluconolactonase (Plasmodium falciparum 3D7). Description: PfG6PD inhibitor potency, dose response, biochemical, fluorescence intensity (AID 504765). Particulars: Recombinant PfG6PD enzyme, fluorescence intensity (NADPH).

Structures are written as SMILES. Several values for one entry are separate records, joined by “and”; a condition that tells them apart may be missing. Equal entries are not always repeated. Activity calls are given as the source filed them. How the calls were made is not given here.

Regarding `C[C@]12CC[C@@H]3c4ccc(O)c(O)c4CC[C@H]3[C@@H]1CC[C@@H]2O`, the IC50 is 4.02 µM. In the case of `CN1CC[C@@]2(C)c3cc(O)ccc3N(C)[C@@H]12`, the IC50 is 1.52 µM.

Turning to `CC1(C)CN(c2ccccc2)N(C(=O)c2ccc(C#N)cc2)C1=O`, the IC50 is 9.37 µM.

`OCCN1CCN(C(=S)c2ccc(Cl)c(Cl)c2)CC1`: the IC50 was 12.5 µM. On to `O=C1C=CC(=O)N1c1ccc(-c2nc3ccccc3o2)cc1`, for which the half-inhibitory concentration (IC50) is 12.6 µM.

For `COC(=O)c1ccccc1NC1=C/C(=N\S(=O)(=O)c2cccs2)c2ccccc2C1=O`, the half-maximal inhibitory concentration (IC50) is 1.26 µM and 6.47 µM.

On to `Cc1ccc(C)c(-n2sc3ccc(F)cc3c2=O)c1`, for which the IC50 is 1.24 µM. In the case of `O=C(Cn1sc2ccccc2c1=O)NC12CC3CC(CC(C3)C1)C2` it was 1.79 µM. The value for `CCOC(=O)c1ccc(/[N+]([O-])=C/c2ccccc2)cc1` was 2.69 µM. As for `O=C(CNC(=O)c1ccc(Br)cc1)NCC(=O)OCC(=O)c1ccc([N+](=O)[O-])cc1`, the IC50 is 18.1 µM.

As to `Cn1c(-c2sccc2OCc2cccc(C(F)(F)F)c2)n[nH]c1=S`, the IC50 entry was “inactive”. `CN1CCc2cccc3c2[C@H]1Cc1ccc(O)c(O)c1-3`: the IC50 was 8.4 µM. `CC(SCC(=O)Nc1ccccc1)c1nc2ccccc2c(=O)[nH]1` (stereo unspecified): the IC50 was 5.29 µM.

As for `O=C(Sc1n[nH]c(=O)[nH]c1=O)c1ccccc1`, the IC50 is 3.33 µM. With `Cc1ccc(NC(=O)c2cc(N3C(=O)C=CC3=O)ccc2N2CCOCC2)cc1`, the 50% inhibitory concentration (IC50) is 15.7 µM.

For the molecule `COc1ccc(CCn2c(NN)nc3c2c(=O)[nH]c(=O)n3C)cc1`, the IC50 was 7.35 µM. For the molecule `CS(=O)(=O)c1ccc(N)c(SSc2cc(S(C)(=O)=O)ccc2N)c1`, the IC50 was 4.07 µM. As to `Cc1ccc(S(=O)(=O)SCCCSS(=O)(=O)c2ccc(C)cc2)cc1`, the IC50 is 4.64 µM. In the case of `O=c1c2ccccc2[se]n1-c1ccccc1` it was 9.66 µM; in that of `CC1CN(c2ccccc2)NC1=O` (stereo unspecified), 2.34 µM. The value for `CN1CCN(C(=S)c2ccc([N+](=O)[O-])cc2)CC1` was “inactive”; that for `O=C(CCl)NCCN1C(=O)S/C(=C\c2cccnc2)C1=O` was 9.89 µM; that for `C[C@H](NC(=O)c1cc2c(cn1)[nH]c1ccccc12)C(=O)O` was “inactive”.

Turning to `O=C(O)CSc1cc(NS(=O)(=O)c2ccc(Cl)cc2)c2ccccc2c1O`, the IC50 is 4.17 µM. Take `CC1(OC(=O)C2CCCC2)C(=O)C=C2C=C(c3ccsc3)N(Cc3ccc4c(c3)OCO4)C=C2C1=O` (stereo unspecified): the IC50 was 11.1 µM. With `COC(=O)CCC(=O)OC1(C)C(=O)C2=CN(c3ccc(OC)cc3)C(c3ccc(OC)cc3)=CC2=C(Br)C1=O` (stereo unspecified), the IC50 is 3.09 µM. On to `CC1CCc2c(nc3sc4c(c3c2N)CCCC4)C1` (stereo unspecified), for which the IC50 is 14.9 µM. As to `O=C1NC(=O)N(c2ccccc2)C(=O)/C1=C/c1ccc([N+](=O)[O-])s1`, the IC50 is 10 µM. In the case of `Cc1cc(C)c2c(=N)c3ccccc3n(CCCCCCCCn3c4ccccc4c(=N)c4c(C)cc(C)nc43)c2n1` it was 10.1 µM. On to `COC1(OC)C=CC(=O)C=C1NC(=O)c1ccccc1OC(C)=O`, for which the IC50 is 9.27 µM. Turning to `O=C(Nc1nc(-c2ccncc2)cs1)C1COc2ccccc2O1` (stereo unspecified), the IC50 entry was “inactive”.

Turning to `O=C(CSc1nc2ccccc2[nH]1)NC1CCCc2ccccc21` (stereo unspecified), the IC50 was 13.4 µM. With `O=C1C(Cl)=C(NCCc2ccccc2)C(=O)c2ccccc21`, the 50% inhibitory concentration (IC50) was 3.32 µM. For `CCN1CCCC1CNC(=O)c1ccc2c(c1)NC(=O)/C(=C\c1ccccc1Cl)S2` (stereo unspecified), the IC50 was 3.08 µM.

For the molecule `O=S(c1ccccc1O)S(=O)c1ccccc1O` (stereo unspecified), the 50% inhibitory concentration (IC50) was 4.89 µM. Take `CC1COCC(C)N1C1=C(Cl)C(=O)c2ccccc2C1=O` (stereo unspecified): the IC50 is 7.19 µM. Regarding `O=S(=O)(Nc1cc(Sc2cccc3cccnc23)c(O)c2ccccc12)c1ccc(F)cc1`, the IC50 was 1.22 µM. In the case of `C[n+]1c(-c2ccccc2)cc2c(=Cc3ccc([N+](=O)[O-])cc3)c3ccccc3n21` it was “inactive”.

Turning to `Cc1ccc(C(=O)/C=C/C(=O)c2ccc(C)cc2)cc1`, the IC50 was 7.28 µM. In the case of `COc1ccc(C(=O)Nc2sc3c(c2C(=O)O)CC(C)(C)OC3)cc1`, the IC50 was 11 µM. For the molecule `O=S(=O)(NCc1csc(-c2ccccc2)n1)c1ccc(Cl)s1`, the IC50 was 6.28 µM.

With `COc1ccccc1N1C(=O)C=C(Sc2nc(C)cc(C)n2)C1=O`, the IC50 was 7.18 µM.

As for `CCN(CC)C(=S)SSC(=S)N(CC)CC`, the IC50 was 10.1 µM. In the case of `C(=N\Nc1nc2ccccc2[nH]1)/c1ccccn1` it was 5.24 µM; in that of `Cc1ccc(C(=O)NCC(=O)NCC(=O)OCC(=O)c2ccc([N+](=O)[O-])cc2)cc1`, 5.92 µM. The value for `CCc1cc(-c2n[nH]c(C)c2-c2ccccc2Cl)c(O)cc1OC` was 7.52 µM. `CCC(C)c1ccccc1OCCn1ccnc1` (stereo unspecified): the IC50 is 3.39 µM.

Turning to `COc1ccc(CCn2c(NN=C3CCCCC3)nc3c2c(=O)[nH]c(=O)n3C)cc1`, the IC50 is 1.65 µM. As to `C=CCc1ccccc1OCC(=O)N/N=C/c1ccccc1OCC`, the IC50 was 6.34 µM.

Turning to `CCOC(=O)c1c(C2COc3ccccc3O2)csc1NC(=O)c1ccco1` (stereo unspecified), the half-inhibitory concentration (IC50) was 14.2 µM.

On to `CCOc1ccc(N(CC(=O)N/N=C/c2cc([N+](=O)[O-])ccc2Cl)S(C)(=O)=O)cc1`, for which the IC50 is 15.1 µM. Take `CN1CCc2cc(O)cc3c2[C@H]1Cc1ccc(O)c(O)c1-3`: the IC50 was 15 µM.

Take `COCCNC(=S)Nc1ccc(N2CCOCC2)c(S(=O)(=O)Nc2ccc(Cl)cc2)c1`: the IC50 was 19.4 µM. As for `CCS(=O)(=O)N1CCN(c2ccc([N+](=O)[O-])c(NC(C)c3ccccc3)c2)CC1` (stereo unspecified), the IC50 was 14.8 µM. For `CCCN1CCc2cc(O)cc3c2[C@H]1Cc1ccc(O)c(O)c1-3`, the IC50 was 10.8 µM.

As to `Cc1cccc(-n2c(=S)[nH]c3sc4c(c3c2=O)CCc2ccccc2-4)c1`, the IC50 entry is “inactive”. Turning to `CCN1CCN(C(=S)c2ccc(Cl)c(Cl)c2)CC1`, the IC50 entry is “inactive”. The value for `C=CCSc1nc2sc3c(c2c(=O)n1CC)CCc1ccccc1-3` was “inactive”; that for `Cc1ccc(-n2sc3cc(F)ccc3c2=O)c(C)c1` was 1.43 µM; that for `Cc1ccc(-c2c(C(=O)N/N=C/c3cccs3)nnn2-c2nonc2N)cc1` was 3.91 µM. As for `Cc1nn(-c2ccccc2)c(Cl)c1/C=N/Nc1nc2ccccc2n1C`, the IC50 was 13.3 µM. On to `Cc1ccc(CNc2ccc(O)cc2)cc1`, for which the IC50 is 8.8 µM. Regarding `O=c1c2ccccc2sn1-c1ccc(S(=O)(=O)N2CCCCC2)cc1`, the IC50 is 7.2 µM. The value for `CSc1nnc(NC(=O)c2ccc3c(c2)OCO3)s1` was 2.82 µM; that for `O=c1c2ccccc2sn1-c1ccccc1F` was 6.48 µM; that for `C[C@]12CC[C@@H]3c4cc(O)c(O)cc4CC[C@H]3[C@@H]1CC[C@@H]2O` was “inactive”. Take `Nc1cc(N)c(OCC(F)(F)F)cc1OCC(F)(F)F`: the IC50 is 1.61 µM.

As for `C=CCN1C=C2C(=O)C(C)(OC(=O)CCC(=O)OC)C(=O)C(Br)=C2C=C1c1ccc(OC)cc1` (stereo unspecified), the IC50 is 2.79 µM.

With `COc1cc(/C=C2\CC/C(=C\c3cc(OC)c(O)c(OC)c3)C2=O)cc(OC)c1O`, the half-maximal inhibitory concentration (IC50) is 17.1 µM. On to `O=C(Nc1ccccn1)c1sc2cc([N+](=O)[O-])ccc2c1Cl`, for which the IC50 result is “inactive”. In the case of `O=[N+]([O-])c1c(NCCCO)cc(Sc2nc3ccccc3s2)c2nonc12`, the IC50 was 12.5 µM.
